Publication PMC6099615, “Anti-glycation, Carbonyl Trapping and Anti-inflammatory Activities of Chrysin Derivatives” (Molecules : A Journal of Synthetic Chemistry and Natural …, 2018)
≈ marks a conversion by molar mass, not a printed value. Structures can show the parent of a compound that is named as a salt. Marks after values point to notes of the source that are not given here.

Assays:
[1] = system: Amadori compound formation; assay: Hemoglobin-δ-gluconolactone assay of Amadori compound formation; type: biochemical; parameters: inhibition rate of Amadori compound formation: dose or concentration left out as unconfirmed; details: for IC50: early stage of AGE formation; for inhibitory activity on Amadori compound formation, fold higher than positive control AG: relative to Aminoguanidine hydrochloride (IC50 = 109.74 μM)
[2] = system: AGE formation; assay: Bovine serum albumin-methylglyoxal assay on AGE formation; type: biochemical; details: for IC50: BSA-methylglyoxal, 37 °C, 48 h
Description: Bovine serum albumin (50 mg/mL) was incubated at 37 °C for 48 h with methylglyoxal (100 mM) in sodium phosphate buffer (0.1 M, pH 7.4) containing 0.2 g/L NaN3 in the presence of various concentrations of the compounds (including a control).
(§1) This test was used to evaluate the ability of samples to inhibit cross-linking of the GK peptide in the presence of D-ribose using the method described by Hwang et al. The GK peptide (26.7 mg/mL) was incubated with D-ribose (200 mg/mL) in sodium phosphate buffer (0.5 M, pH 7.4) containing 0.2 g/L NaN3 under sterile conditions at 37 °C for 72 h. […] All reagents and samples were sterilized by filtration through […] membrane filters. The fluorescence intensity was measured at an excitation wavelength of 355 nm and an emission wavelength of 460 nm with a Luminescence spectrometer LS50B (Perkin-Elmer Ltd., Buckinghamshire, England). AG was used as a positive control.

[3] = system: AGEs cross-linking; assay: N-acetyl-glycyl-lysine-methyl ester D-ribose assay on AGE cross-linking; type: biochemical; details: for IC50: GK peptide-D-ribose, 37 °C, 72 h
Description: as §1

[4] = Water solubility analysis; type: physicochemical; details: for solubility at 1 h: thermodynamic from solid, distilled water, 37 °C, sonication 1 h
Description: CS and derivatives were dissolved in distilled water and incubated at 37 °C with sonication for 1 h to maximize solubility. After sonication, undissolved samples were eliminated by centrifugation (7000× g, 37 °C, 5 min). The supernatants were diluted in methanol and filtered through a 0.45 μm disposable syringe filter (Advantec, Dublin, CA, USA) to analyze the concentration of the samples using HPLC analysis.

[5] = system: NO production in LPS-induced RAW 264.7 cells; assay: NO generation in LPS-induced RAW 264.7 cells (Griess); type: cell-based; details: 24 h
Description: The cytotoxicity of CS and derivatives on RAW 264.7 cells was examined using the MTS assay kit. Cells (1.6 × 10^4/well) were cultured in 96-well plates and treated with samples (10, 25, and 100 μM) for 12, 24, 48, and 72 h. After incubation, 20 μL/well of MTS solution was incubated for 90 min at 37 °C in a humidified 5% CO2 atmosphere. The optical density at 490 nm was measured three times using an EL-800 Universal microplate reader (Bio-Tek Instrument Inc., Winooski, VT, USA). Cell viability of the untreated group was set to 100%. RAW 264.7 cells were seeded into 12-well plates at 4 × 10^5-cells/well, and then incubated with LPS (1 μg/mL) and various concentrations of samples for 24 h. The concentration of nitric oxide (NO) in the medium was measured using the Griess reagent system, as described by the manufacturer. The production of NO was measured at 570 nm using an EL-800 Universal microplate reader (Bio-Tek Instrument Inc., Winooski, VT, USA), and was compared with a sodium nitrite standard calibration curve.

[6] = oral administration; cited from earlier work
[7] = MGO trapping capacity by HPLC (kinetic study of MGO-conjugated adducts)
Description: […] The incubated mixture was filtered using a Microcon YM-10 centrifugal filter unit by centrifugation at 5167× g for 30 min at 4 °C. The filtrate was subsequently analyzed by high-performance liquid chromatography (HPLC) using the methods mentioned in the HPLC analysis section. The samples were then stored at −80 °C for further use.
HPLC was performed on an Agilent1100 series system equipped with a diode-array detector (DAD; Agilent, Sunnyvale, CA, USA) consisting of a vacuum degasser (G1322A), a quaternary pump (G1311A), an auto-sampler (G1313A), a thermostat column compartment (G1316A), and a DAD (G1315B). […] Sample injection volume was 10 μL. The samples were eluted with acidified water (0.1% trifluoroacetic acid, A) and MeOH (B) at a flow rate of 0.7 mL/min. The optimized gradient chromatographic conditions were 5–100% B at 0–40 min; 100–5% B at 40–42 min; and isocratic 5% B at 42–45 min. The detector monitored the eluent at a wavelength of 280 nm.

[8] = chrysin:MGO 1:0.1, incubation 1 h
[9] = chrysin:MGO 1:0.1, incubation 3 h
[10] = chrysin:MGO 1:0.1, incubation 6 h
[11] = chrysin:MGO 1:0.1, incubation 12 h
[12] = chrysin:MGO 1:0.1, incubation 36 h
[13] = chrysin:MGO 1:0.1, incubation 48 h
[14] = chrysin:MGO 1:0.5, incubation 1 h
[15] = chrysin:MGO 1:0.5, incubation 3 h
[16] = chrysin:MGO 1:0.5, incubation 6 h
[17] = chrysin:MGO 1:0.5, incubation 12 h
[18] = chrysin:MGO 1:0.5, incubation 36 h
[19] = chrysin:MGO 1:0.5, incubation 48 h
[20] = chrysin:MGO 1:1, incubation 1 h
[21] = chrysin:MGO 1:1, incubation 3 h
[22] = chrysin:MGO 1:1, incubation 6 h
[23] = chrysin:MGO 1:1, incubation 12 h
[24] = chrysin:MGO 1:1, incubation 36 h
[25] = chrysin:MGO 1:1, incubation 48 h
[26] = chrysin:MGO 1:5, incubation 1 h
[27] = chrysin:MGO 1:5, incubation 3 h
[28] = chrysin:MGO 1:5, incubation 6 h
[29] = chrysin:MGO 1:5, incubation 12 h
[30] = chrysin:MGO 1:5, incubation 36 h
[31] = chrysin:MGO 1:5, incubation 48 h
[32] = chrysin:MGO 1:10, incubation 1 h
[33] = chrysin:MGO 1:10, incubation 3 h
[34] = chrysin:MGO 1:10, incubation 6 h
[35] = chrysin:MGO 1:10, incubation 12 h
[36] = chrysin:MGO 1:10, incubation 12 h, listed as CS
[37] = chrysin:MGO 1:10, incubation 36 h
[38] = chrysin:MGO 1:10, incubation 48 h
[39] = chrysin:MGO 1:10, incubation 48 h, listed as CS
[40] = chrysin:MGO 1:10, incubation 48 h, listed as chrysin

CC(=O)Oc1cc(OC(C)=O)c2c(=O)cc(-c3ccccc3)oc2c1 [5,7-Di-O-acetylchrysin, 5,7-di-O-acetylchrysin]
inhibition rate of Amadori compound formation ([1]; dose-dependent): 1.76–55.13% | IC50 [1]: 0.26 µM | inhibitory activity on Amadori compound formation, fold higher than positive control AG [1]: 422.07 fold | inhibitory activity on Amadori compound formation, fold higher than CS ([1]; relative to CS): 66.96 fold | IC50 [2]: 0.91 µM | IC50 [3]: 22.3 µM | water solubility, fold higher than CS ([4]; relative to CS): 8.83 fold | solubility at 1 h [4]: 265 µM (≈ 89.7 µg/mL) | inhibition of NO [5]: concentration-dependent inhibition

N=C(N)NN [Aminoguanidine, Aminoguanidine hydrochloride, reference compound]
IC50 [1]: 110 µM | IC50 [2]: 137 µM | IC50 [3]: 1900 µM

C[N+](C)(C)C[C@H](O)CC(=O)[O-] [L-carnitine]
bioavailability [6]: 14–18%

O=c1cc(-c2ccccc2)oc2cc(O)cc(O)c12 [Chrysin, 5,7-dihydroxyflavone]
IC50 [1]: 17.4 µM | inhibitory activity on Amadori compound formation, fold higher than positive control AG [1]: 6.30 fold | IC50 [2]: 25 µM | activity against AGE formation, fold higher than AG ([2]; relative to AG (IC50 = 136.79 μM)): 5.48 fold | IC50 [3]: > 2000 µM | inhibitory activity against AGEs cross-linking ([3]; at a concentration of 10.0 mg/mL): no inhibitory activities | HPLC area percentage of chrysin-di-MGO adduct [7, 8]: 0.0% | HPLC area percentage of chrysin-mono-MGO adduct [7, 8]: 1.7% | HPLC area percentage of chrysin-di-MGO adduct [7, 9]: 0.1% | HPLC area percentage of chrysin-mono-MGO adduct [7, 9]: 2.9% | HPLC area percentage of chrysin-di-MGO adduct [7, 10]: 0.1% | HPLC area percentage of chrysin-mono-MGO adduct [7, 10]: 4.0% | HPLC area percentage of chrysin-di-MGO adduct [7, 11]: 0.2% | HPLC area percentage of chrysin-mono-MGO adduct [7, 11]: 7.6% | HPLC area percentage of chrysin-mono-MGO adduct ([7]; chrysin:MGO 1:0.1, incubation 12 h, listed as CS): 8% | HPLC area percentage of chrysin-di-MGO adduct [7, 12]: 1.1% | HPLC area percentage of chrysin-mono-MGO adduct [7, 12]: 19.9% | HPLC area percentage of chrysin-di-MGO adduct [7, 13]: 2.9% | HPLC area percentage of chrysin-mono-MGO adduct [7, 13]: 27.2% | HPLC area percentage of chrysin-di-MGO adduct [7, 14]: 0.0% | HPLC area percentage of chrysin-mono-MGO adduct [7, 14]: 4.1% | HPLC area percentage of chrysin-di-MGO adduct [7, 15]: 0.2% | HPLC area percentage of chrysin-mono-MGO adduct [7, 15]: 7.7% | HPLC area percentage of chrysin-di-MGO adduct [7, 16]: 0.5% | HPLC area percentage of chrysin-mono-MGO adduct [7, 16]: 13.1% | HPLC area percentage of chrysin-di-MGO adduct [7, 17]: 1.1% | HPLC area percentage of chrysin-mono-MGO adduct [7, 17]: 21.4% | HPLC area percentage of chrysin-mono-MGO adduct ([7]; chrysin:MGO 1:0.5, incubation 12 h, listed as CS): 21% | HPLC area percentage of chrysin-di-MGO adduct [7, 18]: 4.1% | HPLC area percentage of chrysin-mono-MGO adduct [7, 18]: 36.5% | HPLC area percentage of chrysin-di-MGO adduct [7, 19]: 7.6% | HPLC area percentage of chrysin-mono-MGO adduct [7, 19]: 45.8% | HPLC area percentage of chrysin-di-MGO adduct [7, 20]: 0.1% | HPLC area percentage of chrysin-mono-MGO adduct [7, 20]: 5.0% | HPLC area percentage of chrysin-di-MGO adduct [7, 21]: 0.3% | HPLC area percentage of chrysin-mono-MGO adduct [7, 21]: 10.8% | HPLC area percentage of chrysin-di-MGO adduct [7, 22]: 0.7% | HPLC area percentage of chrysin-mono-MGO adduct [7, 22]: 18.1% | HPLC area percentage of chrysin-di-MGO adduct [7, 23]: 1.5% | HPLC area percentage of chrysin-mono-MGO adduct [7, 23]: 29.5% | HPLC area percentage of chrysin-mono-MGO adduct ([7]; chrysin:MGO 1:1, incubation 12 h, listed as CS): 30% | HPLC area percentage of chrysin-di-MGO adduct [7, 24]: 6.4% | HPLC area percentage of chrysin-mono-MGO adduct [7, 24]: 45.1% | HPLC area percentage of chrysin-di-MGO adduct [7, 25]: 11.6% | HPLC area percentage of chrysin-mono-MGO adduct [7, 25]: 55.0% | HPLC area percentage of chrysin-di-MGO adduct [7, 26]: 0.3% | HPLC area percentage of chrysin-mono-MGO adduct [7, 26]: 12.4% | HPLC area percentage of chrysin-di-MGO adduct [7, 27]: 0.8% | HPLC area percentage of chrysin-mono-MGO adduct [7, 27]: 19.0% | HPLC area percentage of chrysin-di-MGO adduct [7, 28]: 1.7% | HPLC area percentage of chrysin-mono-MGO adduct [7, 28]: 26.7% | HPLC area percentage of chrysin-di-MGO adduct [7, 29]: 3.6% | HPLC area percentage of chrysin-mono-MGO adduct [7, 29]: 35.6% | HPLC area percentage of chrysin-mono-MGO adduct ([7]; chrysin:MGO 1:5, incubation 12 h, listed as CS): 36% | HPLC area percentage of chrysin-di-MGO adduct [7, 30]: 15.9% | HPLC area percentage of chrysin-mono-MGO adduct [7, 30]: 49.1% | HPLC area percentage of chrysin-di-MGO adduct [7, 31]: 25.2% | HPLC area percentage of chrysin-mono-MGO adduct [7, 31]: 57.5% | HPLC area percentage of chrysin-di-MGO adduct [7, 32]: 0.5% | HPLC area percentage of chrysin-mono-MGO adduct [7, 32]: 11.9 ^a % | HPLC area percentage of chrysin-di-MGO adduct [7, 33]: 1.0% | HPLC area percentage of chrysin-mono-MGO adduct [7, 33]: 21.0% | HPLC area percentage of chrysin-di-MGO adduct [7, 34]: 1.9% | HPLC area percentage of chrysin-mono-MGO adduct [7, 34]: 31.9% | HPLC area percentage of chrysin-di-MGO adduct [7, 35]: 5.7% | HPLC area percentage of chrysin-mono-MGO adduct [7, 35]: 42.1% | HPLC area percentage of chrysin-di-MGO adduct [7, 36]: 6% | HPLC area percentage of chrysin-mono-MGO adduct [7, 36]: 42% | HPLC area percentage of chrysin-di-MGO adduct [7, 37]: 17.3% | HPLC area percentage of chrysin-mono-MGO adduct [7, 37]: 57.4% | HPLC area percentage of chrysin-di-MGO adduct [7, 38]: 29.7% | HPLC area percentage of chrysin-mono-MGO adduct [7, 38]: 63.9% | HPLC area percentage of chrysin-di-MGO adduct [7, 39]: 30% | HPLC area percentage of chrysin-mono-MGO adduct [7, 39]: 64% | HPLC area percentage of chrysin-di-MGO adduct [7, 40]: 29.69% | HPLC area percentage of chrysin-mono-MGO adduct [7, 40]: 63.86% | CS–di MGO adduct formation across ratios ([7]; ratios shown in Table 2B): 0.2–3% | solubility at 1 h [4]: 30 µM (≈ 7.63 µg/mL)
